Assay results published in patent US20230365959A1, “METHOD FOR IMPROVING THE STABILITY OF A COMPOSITION COMPRISING A FLAVIN-DEPENDENT LACTATE DEHYDROGENASE” (KIKKOMAN CORPORATION, priority 2020, published 2023).

Key:
Format in all cases: biochemical
[1] = test system: lactate dehydrogenase from Candida inconspicua (CaLDH); test: Thermal stability of CaLDH (residual activity ratio after heat treatment); conditions: CaLDH 2 U/mL; added compound 300 mM; potassium phosphate buffer pH 7.5; 50°C for 15 minutes
Experimental: (§1) The thermal stability of LDH was evaluated by heating LDH at a given temperature for a given time and comparing the activities before and after heating. […] Further, LDH activity of an LDH solution allowed to stand still on ice without any heat treatment was measured. Based on the activity of this case without any heat treatment taken as 100, the activities of LDH solutions after heat treatment were calculated to determine the residual activity ratio (%). More specifically, the residual activity ratio (%) can be obtained by measuring LDH activity value (a) of a solution before heat treatment or before long-term storage, and LDH activity value (b) of a solution after heat treatment or after long-term storage, and then, calculating ((b)/(a)×100).
(§2) The activity of LDH was determined in accordance with the following procedure. […] Subsequently, a 30 mM PMS solution (50 μL) and an enzyme sample solution (50 μL) were added to the mixture to initiate a reaction. Absorbance at 520 nm was measured at the time of initiation of the reaction and over time and, the degree of reduction (ΔA520) in absorbance per minute as the enzymatic reaction progresses was obtained and LDH activity was calculated in accordance with the following Mathematical formula 2. Here, LDH activity is expressed by an enzyme (LDH) unit, and 1U is defined as the amount of the enzyme that can reduce 1 μmol DCIP per minute at 37° C. in the presence of 10 mM L-lactate.
Stability evaluation tests were conducted to check the improvement effect of malic acid on the stability of various LDHs. […] Each of these diluted enzyme solutions (a mixture of an enzyme and L-malic acid, LDH concentration: 2 U/mL, L-malic acid concentration: 300 mM) was heated in accordance with the thermal-stability evaluation method described in Section 4. More specifically, PkLDH was treated at 55° C., whereas, CaLDH and OgLDH were treated at 50° C. for 15 minutes and then the residual activity ratio (%) was calculated, based on the activity before heating taken as 100. […]

[2] = target: T1, lactate dehydrogenase from Saccharomyces cereviciae (ScLDH) (Saccharomyces cerevisiae, UniProt P00175); test: Thermal stability of ScLDH (supernatant of crushed bacterial cells); conditions: ScLDH 2 U/mL; compound 300 mM; potassium phosphate buffer pH 7.5; 40°C for 15 minutes
T1 construct: made in house; host or cells: Escherichia coli BL21 (pKK223-3-ScLDH); unpurified supernatant of crushed cells
T1 sequence (P00175 86-591): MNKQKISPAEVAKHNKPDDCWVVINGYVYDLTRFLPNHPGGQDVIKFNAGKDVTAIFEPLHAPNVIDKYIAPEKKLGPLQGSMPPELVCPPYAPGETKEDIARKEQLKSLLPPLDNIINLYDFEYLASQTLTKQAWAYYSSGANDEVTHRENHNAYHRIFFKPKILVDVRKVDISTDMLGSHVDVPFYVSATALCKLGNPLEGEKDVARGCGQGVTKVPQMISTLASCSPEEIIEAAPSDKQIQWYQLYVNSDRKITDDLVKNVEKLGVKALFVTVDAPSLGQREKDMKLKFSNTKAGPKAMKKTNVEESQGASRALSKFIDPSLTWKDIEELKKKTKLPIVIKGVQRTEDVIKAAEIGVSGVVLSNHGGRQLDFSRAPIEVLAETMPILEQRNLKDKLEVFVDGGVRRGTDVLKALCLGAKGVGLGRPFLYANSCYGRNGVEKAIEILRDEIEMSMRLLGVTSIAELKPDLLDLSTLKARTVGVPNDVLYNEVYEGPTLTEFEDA
Experimental: as §1, §2
Using the supernatant of a solution comprising crushed ScLDH bacterial cells obtained above, the ratios of remaining activities (%) in the presence and absence of a LDH stabilizer were compared in accordance with the LDH thermal stability evaluation method described in Section 4. In this manner, a stabilizer was searched.
The pH of the LDH solution was adjusted to be 7.5 after each of the compounds was added. Heat treatment was carried out at 40° C. for 15 minutes.

[3] = test system: lactate dehydrogenase from Pichia kudriavzevii (PkLDH); test: Thermal stability of PkLDH in 150 mM HEPES buffer; conditions: PkLDH 2 U/mL, 150 mM HEPES buffer pH 7.5, 55°C for 15 minutes
Experimental: as §1
The activity of LDH was determined in accordance with the following procedure. […] Subsequently, a 30 mM PMS solution (50 μL) and an enzyme sample solution (50 μL) were added to the mixture to initiate a reaction. Absorbance at 520 nm was measured at the time of initiation of the reaction and over time and, the degree of reduction (ΔA520) in absorbance per minute as the enzymatic reaction progresses was obtained and LDH activity was calculated in accordance with the following Mathematical formula 2. […]

[4] = test system: lactate dehydrogenase from Ogataea parapolymorpha (OgLDH); test: Thermal stability of OgLDH (residual activity ratio after heat treatment); conditions: OgLDH 2 U/mL, potassium phosphate buffer pH 7.5, 50°C for 15 minutes
Experimental: as §1, §2
Stability evaluation tests were conducted to check the improvement effect of malic acid on the stability of various LDHs. […] Each of these diluted enzyme solutions (a mixture of an enzyme and L-malic acid, LDH concentration: 2 U/mL, L-malic acid concentration: 300 mM) was heated in accordance with the thermal-stability evaluation method described in Section 4. More specifically, PkLDH was treated at 55° C., whereas, CaLDH and OgLDH were treated at 50° C. for 15 minutes and then the residual activity ratio (%) was calculated, based on the activity before heating taken as 100. As a comparative example, a sample without adding any L-malic acid in the enzyme diluent was subjected to the same experiment, and the ratio of residual activity in both cases were compared.
Using the purified OgLDH preparation obtained above, the ratios of remaining activities (%) in the presence and absence of a LDH stabilizer were compared in accordance with the LDH thermal stability evaluation method described in Section 4. In this manner, a stabilizer was searched.
The pH of the LDH solution was adjusted to be 7.5 after each of the compounds was added. Heat treatment was carried out at 50° C. for 15 minutes.

[5] = test system: lactate dehydrogenase from Pichia kudriavzevii (PkLDH); test: Thermal stability of PkLDH (residual activity ratio after heat treatment, potassium phosphate buffer); conditions: PkLDH 2 U/mL
Experimental: Thermal stability of LDH can be evaluated by heating LDH at a given temperature for a given time and comparing the activity thereof before and after heating. […] The LDH activity of an LDH solution which is allowed to stand still on ice without heating is taken as 100 and the LDH activity after heating is calculated and, the residual activity ratio (ratio of remaining activity) (%) can be determined.
More specifically, the residual activity ratio (%) can be obtained by measuring LDH activity value (a) of a solution before heat treatment or before long-term storage and LDH activity value (b) of a solution after heat treatment or after long-term storage and calculating ((b)/(a)×100).
Using the purified PkLDH preparation obtained above, the residual activity ratio (%) in the presence and absence of an LDH stabilizer were compared in accordance with the LDH thermal stability evaluation method mentioned previously, and in this manner, a stabilizer was searched.
as §1
The degree of LDH stability improving effect of each of the various added compounds was evaluated by preparing an LDH solution by allowing LDH to coexist with each of the various compounds, subjecting the solution to a heat treatment and determining the residual activity ratio (%) of the solution, and evaluating the residual activity (%) by mutually comparing the cases between compounds or comparing the case to a case where no compound was added.
as §2
The pH of the PkLDH solution was adjusted to be 7.5 after each of the compounds was added. Heat treatment was carried out at 55° C. for 15 minutes. As a comparative example, an LDH solution prepared without adding any compound was subjected to the same experiment. It should be noted that, unless specified otherwise, the reagents used herein were all purchased from Tokyo Chemical Industry Co., Ltd. […]

[6] = test system: lactate dehydrogenase from Pichia kudriavzevii (PkLDH); test: Chronoamperometry with printed electrode to which PkLDH plus stabilizer was applied and dried (2 mM mPMS/PBS); conditions: added compound 50 mM, LDH 1 U dried at 40°C for 60 minutes, +200 mV
Experimental: An enzyme electrode was prepared using the purified PkLDH preparation obtained above and chronoamperometry was carried out. Each of the compounds was added to an enzyme solution in advance and tested whether or not a stabilizing effect of the enzyme during a drying step was exerted. LDH (1 U) solutions comprising compounds in a concentration (0.2% (w/v), 2% (w/v) and 50 mM, respectively) as described in Table 8 were each applied to a screen-printed carbon electrode C110 (manufactured by Metrohm-Dropsens) in an amount of 4 μL and dried at 40° C. for 60 minutes. The same procedure was repeated using an LDH solution without adding any one of the compounds. Each of the electrodes prepared was connected to ALS electrochemical analyzer 814D (manufactured by BAS) using a dedicated connector (DRP-CAC, manufactured by Drop Sense). Subsequently, 100 μL of a 2 mM mPMS/PBS solution was added dropwise to dissolve the dried LDH. The applied voltage was +200 mV (vs Ag/Ag+). An L-sodium lactate solution was added and a response current value 5 seconds after initiation of measurement was recorded. […] Then, an L-sodium lactate solution was added such that the final concentration thereof would be 2 to 10 mM, and a response current value 5 seconds after initiation of measurement was recorded.

| Compound | Residual activity ratio (%) CaLDH [1] [%] | stability improving effect on ScLDH [2] [%] | Residual activity ratio (%) ([3]; added compound 300 mM) | Residual activity ratio (%) OgLDH ([4]; added compound 300 mM) [%] | Residual activity ratio (%) ([5]; added compound 300 mM, 150 mM potassium phosphate buffer pH 7.5, 0.15% BSA, 55°C for 15 minutes) | Residual activity ratio (%) ([5]; final concentration of malic acid 10 mM, 55°C for 15 min) | Residual activity ratio (%) ([5]; final concentration of malic acid 30 mM, 55°C for 15 min) | Residual activity ratio (%) ([5]; final concentration of malic acid 100 mM, 55°C for 15 min) | Residual activity ratio (%) ([5]; final concentration of malic acid 500 mM, 55°C for 15 min) | Residual activity ratio (%) ([3]; added compound 350 mM) | LDH stability improving effect ([4]; compound 300 mM) [%] | Current value 5 seconds later (μA), 0 mM lactate ([6]; 0 mM lactate) [μA] | Current value 5 seconds later (μA), 2 mM lactate ([6]; 2 mM lactate) [μA] |
| --- | --- | --- | --- | --- | --- | --- | --- | --- | --- | --- | --- | --- | --- |
| O=C(O)C[C@H](O)C(=O)O [L-malic acid] | 45 | 41 | 100 | 88 | 80 | 36 | 44 | 52 | 90 | – | – | – | – |
| O=C([O-])CC(=O)[O-].[Na+].[Na+] [disodium malonate] | – | 26 | – | – | – | – | – | – | – | 101 | 96 | 0.21 | 61.8 |
